The values that follow come from ChEMBL document CHEMBL1142813, “Synthesis of tripeptides as potent Yersinia protein tyrosine phosphatase inhibitors” (Bioorg Med Chem Lett, 2005).

Assay [1] deals with Secreted effector protein (Yersinia pestis, UniProt O68720). Briefly: Inhibitory concentration against Yersinia pestis YopH expressed in Escherichia coli BL21 cells.
Assay [2] deals with T1, Tyrosine-protein phosphatase non-receptor type 1 (Homo sapiens, UniProt P18031).
T1 sequence (P18031 whole entry): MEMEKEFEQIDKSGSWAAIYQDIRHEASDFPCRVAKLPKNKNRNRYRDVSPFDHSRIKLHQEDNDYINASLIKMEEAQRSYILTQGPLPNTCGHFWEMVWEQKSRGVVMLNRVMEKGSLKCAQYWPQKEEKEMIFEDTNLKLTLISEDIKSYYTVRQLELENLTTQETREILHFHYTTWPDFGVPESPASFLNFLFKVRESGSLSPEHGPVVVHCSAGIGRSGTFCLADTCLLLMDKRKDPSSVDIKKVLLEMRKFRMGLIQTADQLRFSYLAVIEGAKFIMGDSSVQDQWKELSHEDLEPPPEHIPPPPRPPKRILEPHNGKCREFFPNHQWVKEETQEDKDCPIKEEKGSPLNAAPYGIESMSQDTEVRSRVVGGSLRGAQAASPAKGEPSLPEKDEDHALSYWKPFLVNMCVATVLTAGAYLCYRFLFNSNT
Briefly: Inhibitory concentration against human PTP1B expressed in Escherichia coli BL21 cells.

Chain of Secreted effector protein (O68720 whole entry): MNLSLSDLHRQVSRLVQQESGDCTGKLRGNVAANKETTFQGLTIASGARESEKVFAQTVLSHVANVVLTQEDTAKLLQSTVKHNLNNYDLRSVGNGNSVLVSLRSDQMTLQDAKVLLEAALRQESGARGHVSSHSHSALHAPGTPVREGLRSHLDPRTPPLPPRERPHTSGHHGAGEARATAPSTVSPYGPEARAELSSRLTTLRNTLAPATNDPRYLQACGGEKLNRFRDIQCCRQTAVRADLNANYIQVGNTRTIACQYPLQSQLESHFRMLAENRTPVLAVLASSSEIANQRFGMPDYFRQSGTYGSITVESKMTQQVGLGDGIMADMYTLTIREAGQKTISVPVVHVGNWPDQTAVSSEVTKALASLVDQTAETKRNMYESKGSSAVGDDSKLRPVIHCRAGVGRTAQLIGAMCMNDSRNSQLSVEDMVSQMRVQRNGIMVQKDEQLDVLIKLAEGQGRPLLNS

Turning to `CC(C)C[C@H](CC(=O)[C@H](Cc1ccc(OCC(=O)O)cc1)NC(=O)[C@H](CCC(=O)OCc1ccccc1)NS(=O)(=O)CCc1cccc2ccccc12)C(N)=O`, the IC50 in assay [1] was found to be 22 µM; in assay [2], 24 µM.

Turning to `CC(C)C[C@H](CC(=O)[C@H](Cc1ccc(OCC(=O)O)cc1)NC(=O)[C@H](CNC(=O)OCc1ccccc1)NC(=O)OCC1c2ccccc2-c2ccccc21)C(N)=O`, the 50% inhibitory concentration (IC50) in assay [1] stood at 2.1 µM; in assay [2], 4.3 µM.

Regarding `CC(C)C[C@H](CC(=O)[C@H](Cc1ccc(OCC(=O)O)cc1)NC(=O)[C@H](CCC(=O)OCc1ccccc1)NC(=O)CCc1c2ccccc2cc2ccccc12)C(N)=O`, the half-inhibitory concentration (IC50) worked out at 12 µM in assay [1] and 6.4 µM in assay [2].

Consider `CC(C)C[C@H](CC(=O)[C@H](Cc1ccc(CC(=O)O)cc1)NC(=O)[C@H](CCC(=O)OCc1ccccc1)NC(=O)OCC1c2ccccc2-c2ccccc21)C(N)=O`, for which the IC50 in assay [1] was 2.4 µM; in assay [2] it was 4.6 µM.

For `CC(C)C[C@H](CC(=O)[C@H](Cc1ccc(OCC(=O)O)cc1)NC(=O)[C@H](CCC(=O)OCc1ccccc1)NC(=O)COc1ccc2ccccc2c1)C(N)=O`, the IC50 came out at 30 µM in assay [1] and 23 µM in assay [2].

For `COc1ccc(Cn2nnc(CC(=O)N[C@@H](CCC(=O)OCc3ccccc3)C(=O)N[C@@H](Cc3ccc(OCC(=O)O)cc3)C(=O)C[C@@H](CC(C)C)C(N)=O)n2)cc1`, the half-maximal inhibitory concentration (IC50) in assay [1] and in assay [2] was > 100 µM in each case.

On to `CC(C)C[C@H](CC(=O)[C@H](Cc1ccc(OCC(=O)O)cc1)NC(=O)[C@H](CCC(=O)OCc1ccccc1)NC(=O)OCC1c2ccccc2-c2ccccc21)C(N)=O`, for which the half-inhibitory concentration (IC50) in assay [1] is 1.8 µM; in assay [2] it was 2.9 µM.

For the compound `CC(C)C[C@H](CC(=O)[C@H](Cc1ccc(OCC(=O)O)cc1)NC(=O)[C@H](CCC(=O)OCc1ccccc1)NC(=O)CCCc1c[nH]c2ccccc12)C(N)=O`, the IC50 in assay [1] and in assay [2] was > 100 µM in each case.

Consider `CC(C)C[C@H](CC(=O)[C@H](Cc1ccc(C(F)(F)C(=O)O)cc1)NC(=O)[C@H](CCC(=O)OCc1ccccc1)NC(=O)OCC1c2ccccc2-c2ccccc21)C(N)=O`, for which the IC50 in assay [1] was 2.5 µM; in assay [2], 3.1 µM.

`CC(C)C[C@H](CC(=O)[C@H](Cc1ccc(OCC(=O)O)cc1)NC(=O)[C@H](CCC(=O)OCc1ccccc1)NC(=O)CCc1cccc2ccccc12)C(N)=O`: the IC50 was found to be 18 µM in assay [1] and 12 µM in assay [2].

Regarding `CC(C)C[C@H](CC(=O)[C@H](Cc1ccc(OC(F)(F)C(=O)O)cc1)NC(=O)[C@H](CCC(=O)OCc1ccccc1)NC(=O)OCC1c2ccccc2-c2ccccc21)C(N)=O`, the IC50 stood at 1.9 µM in assay [1] and 3.8 µM in assay [2].

As to `CC(C)C[C@H](CC(=O)[C@H](Cc1ccc(OCC(=O)O)cc1)NC(=O)[C@H](CCC(=O)OCc1ccccc1)NC(=O)COc1cccc2ccccc12)C(N)=O`, the IC50 in assay [1] is 20 µM; in assay [2], 13 µM.

With `Cc1ccc2c(c1)CCN2CCC(=O)N[C@@H](CCC(=O)OCc1ccccc1)C(=O)N[C@@H](Cc1ccc(OCC(=O)O)cc1)C(=O)C[C@@H](CC(C)C)C(N)=O`, the results for the IC50 in assay [1] and in assay [2] were 5.6 µM and 4.3 µM, respectively.

Regarding `CC(C)C[C@H](NC(=O)[C@H](Cc1ccc(OCC(=O)O)cc1)NC(=O)C(CNC(=O)OCc1ccccc1)CNC(=O)OCc1ccccc1)C(N)=O`, the IC50 in assay [1] came out at 4 µM; in assay [2] it was 2.8 µM.

Take `CC(C)C[C@H](CC(=O)[C@H](Cc1ccc(OCC(=O)O)cc1)NC(=O)[C@H](CCC(=O)OCc1ccccc1)NC(=O)CCc1c[nH]c2ccccc12)C(N)=O`: the IC50 in assay [1] and in assay [2] was > 100 µM throughout.

On to `Cc1cn(CC(=O)N[C@@H](CCC(=O)OCc2ccccc2)C(=O)N[C@@H](Cc2ccc(OCC(=O)O)cc2)C(=O)C[C@@H](CC(C)C)C(N)=O)c(=O)[nH]c1=O`, for which the IC50 in assay [1] and in assay [2] was > 100 µM throughout.
